From patent US6358969B1, “3-desmethylrapamycin or derivatives thereof, processes for their preparation and their use as antifungal agents and immunosuppressants” (SmithKline Beecham p.l.c., priority 1991, dated 2002) come the findings set out here.

The structures appear in SMILES notation. In brackets after ≈: the same amount, converted by molar mass. Like-named read-outs stand apart in the source and are kept apart here.

What all share (type): cell-based
Assay [1] concerns Aspergillus niger. Description: Spectrum of activity, agar diffusion zones of inhibition. The note with it: SAB agar, 24 hours, read-out: Zones of inhibition (diameter). The protocol:
(§1) Method—The spectrum of activity was determined by placing solutions of the compound, prepared in sodium phosphate buffer, pH 6.6, in wells in seeded Sabouraud's Dextrose Agar. Activity was assessed by measuring the zones of inhibition following incubation at 37° C. (yeasts and Aspergillus niger) or 30° C. (other filamentous fungi) for 24 hours.

The subject of assay [2] is Candida albicans 73/079. The description is as above. The following applies: SAB agar, 24 hours, read-out: Zones of inhibition (diameter). The protocol:
as §1

Assay [3] concerns Crytococcus neoformans 451. The description is as above. The following applies: SAB agar, 24 hours, read-out: Zones of inhibition (diameter). The procedure: as §1
The test system of assay [4] is Hendersonula torulides TH65. The assay is described as above. The note with it: SAB agar, 24 hours, read-out: Zones of inhibition (diameter). The protocol:
as §1

The test system of assay [5] is Paecilomyces varioti. The assay is described as above. The following applies: SAB agar, 24 hours, read-out: Zones of inhibition (diameter). The procedure:
as §1

Assay [6] deals with Pityrosporum canis 0024RE. The assay is described as above. The following applies: SAB agar, 24 hours, read-out: Zones of inhibition (diameter). The procedure: as §1
Assay [7] has as its system Rhizopus oryzae 21602. Described as above. The following applies: Rhizopus arrhizus, SAB agar, 24 hours, read-out: Zones of inhibition (diameter). The protocol: as §1
For assay [8], the system named is Saccharomyces cerevisiae. The assay is described as above. The note with it: SAB agar, 24 hours, read-out: Zones of inhibition (diameter). The protocol: as §1
In assay [9] the test system is Trichophyton mentagrophytes 569A. Described as above. The note with it: SAB agar, 24 hours, read-out: Zones of inhibition (diameter). The protocol:
as §1

Assay [10] concerns Aspergillus niger. Description: Minimal Inhibitory Concentration, broth microtitre dilution. The following applies: 37° C., inoculum 10^4 spores/ml, read-out: Minimum Inhibitory Concentration (MIC). The procedure:
(§2) Method—The Minimal Inhibitory Concentration (MIC) was determined by diluting the compound in a broth medium in a microtitre tray. The organisms were diluted and added to the wells to provide a final inoculum of approximately 10^5 cells per ml or 10^4 fungal spores per ml. The trays were incubated at 37° C. and the turbidity of each well noted at intervals. The (MIC) was taken as the lowest concentration (in mg/ml) which prevented significant growth.

The test system of assay [11] is Candida albicans 731079. The description is as above. The note with it: 37° C., inoculum 10^5 cells/ml, read-out: Minimum Inhibitory Concentration (MIC). The procedure: as §2
Assay [12] has as its system yeasts and filamentous fungi. Description: Agar diffusion test, overall spectrum of activity. The following applies: summary of Table 1. The procedure:
as §1
Background: Agar diffusion results depend on both activity and mobility in agar.

Assay [13] deals with Candida albicans. Description: Antifungal activity (stated characteristic of the compound).

For `COC1CC2CCC(C)C(O)(O2)C(=O)C(=O)N2CCCCC2C(=O)OC(C(C)CC2CCC(O)C(OC)C2)CC(=O)C(C)/C=C(\C)C(O)C(O)C(=O)C(C)CC(C)/C=C/C=C/C=C/1C` (stereo not drawn), the zone of inhibition at 100 µg/mL turned out to be 46 mm in [1] (CONC 100 μg/ml); 29 mm in [2] (CONC 100 μg/ml); 29 mm in [3] (CONC 100 μg/ml); 33 mm in assay [4] (CONC 100 μg/ml); 26 mm in assay [5] (CONC 100 μg/ml); 0 mm in [6] (CONC 100 μg/ml). The zone of inhibition at 100 µg/mL is 46 mm in assay [7] (CONC 100 μg/ml), 34 mm in assay [8] (CONC 100 μg/ml) and 42 mm in assay [9] (CONC 100 μg/ml). Besides, the zone of inhibition at 500 µg/mL is 47 mm in assay [1] (CONC 500 μg/ml); 29 mm in assay [2] (CONC 500 μg/ml); 29 mm in assay [3] (CONC 500 μg/ml); 36 mm in [4] (CONC 500 μg/ml); 28 mm in assay [5] (CONC 500 μg/ml); 0 mm in [6] (CONC 500 μg/ml). Also, the results for the zone of inhibition at 500 µg/mL in assay [7] (CONC 500 μg/ml), in assay [8] (CONC 500 μg/ml) and in assay [9] (CONC 500 μg/ml) were 47 mm, 33 mm and 43 mm, respectively. Also, the MIC in assay [10] (24 h, day 1 of incubation) was determined as 16 µg/mL (≈ 17.8 µM); in assay [10] (48 h, day 2 of incubation), 32 µg/mL (≈ 35.5 µM); in [11] (Candida albicans, 731079, 24 h, day 1 of incubation), 32 µg/mL (≈ 35.5 µM); in [11] (Candida albicans, 731079, 48 h, day 2 of incubation), 32 µg/mL (≈ 35.5 µM). For the same compound, in assay [12], the “Spectrum of activity in the agar diffusion test” value is reported as “broad spectrum activity”. The “Antifungal activity against Candida albicans” value in [13] is given as “shows antifungal activity”.
